Reference: patent publication US20130225611A1, “Compositions and Methods for Reducing Cancer Cell Proliferation and Modulating Importin-Beta Function” (THE REGENTS OF THE UNIVERSITY OF CALIFORNIA, priority 2011, published 2013)

Legend:
[1] = tested on: CRM1-mediated export of NFAT-GFP; assay: NFAT-GFP nuclear export after ionomycin washout in HEK 293 cells; format: cell-based, human; details: HEK 293, importazole 40 μM, leptomycin B 10 ng/ml, 1 hour after ionomycin washout
Procedure: For all import and export experiments, HEK 293 cells stably expressing NFAT-GFP were grown on glass coverslips to approximately 50% confluency prior to drug treatment. In all cases, importazole was used at 40 μM and leptomycin B was used at 10 ng/ml. For controls, DMSO was used at a concentration of 0.4%. Ionomycin was added at 1.25 μM. Importazole and leptomycin B treatments were all for 1 hour. In all experiments cells were fixed with 4% formaldehyde prior to fluorescence microscopy. DNA was visualized with 1 μg/ml Hoechst dye.

[2] = tested on: spindle assembly around sperm chromosomes; assay: spindle assembly in metaphase-arrested Xenopus egg extracts; set-up: species or system Xenopus laevis; details: 100 μM importazole
Excerpt: In order to determine whether importazole also disrupts mitosis, importazole was first tested in metaphase-arrested Xenopus egg extracts, which rely heavily on a RanGTP gradient for spindle assembly around sperm chromosomes. […] The effect was similar to that of adding a truncated importin-β (amino acids 71-876), a version that no longer binds to RanGTP and therefore sequesters its cargoes. […] Thus, importazole caused dramatic effects on spindle assembly consistent with the known role of the importin-β/RanGTP pathway in the Xenopus egg extract system, and is not a general microtubule inhibitor.
Xenopus laevis egg extracts were prepared as described by Hannak et al. (2006) Nat. Protoc. 1:2305-2314. For in vitro spindle assembly, Xenopus laevis sperm DNA was added to egg extracts supplemented with rhodamine-labeled tubulin. Asters were formed by addition of 5% DMSO. DNA was stained with Hoechst dye. The formation of microtubule-based structures was assessed using epifluorescence microscopy after a 30-minute room temperature incubation. In vitro microtubule polymerization and pelleting assays were performed by incubating 25 μM bovine tubulin, 1 mM GTP, and 5% DMSO in BRB80 buffer (80 mM PIPES, 1 mM MgCl2, 1 mM EGTA, pH 6.8) at 37° C. for 30 minutes. Polymerized microtubules were pelleted through a sucrose cushion, resuspended, and analyzed by SDS PAGE.

Compound: CCC(=C/[C@H](C)C/C=C/C(C)=C/[C@@H](C)C(=O)[C@@H](C)[C@H](O)[C@@H](C)C/C(C)=C/C(=O)O)/C=C/[C@@H]1OC(=O)C=C[C@@H]1C [leptomycin B, reference compound]
- CRM1-mediated export of NFAT-GFP [1]: blocked

Compound: truncated importin-β (amino acids 71-876): truncated importin-β that no longer binds to RanGTP and therefore sequesters its cargoes
- sperm nuclei at which normal bipolar microtubule structures were prevented from forming [2]: similar
